The text below walks through data of patent US20230365592A1 (Agios Pharmaceuticals, Inc., priority 2022, published 2023).

The target of this assay is T1, human PAH with the R408W mutation (Homo sapiens, UniProt P00439, R408W).
T1 construct: expressed in transfected cells
T1 sequence (P00439 1-452 R408W): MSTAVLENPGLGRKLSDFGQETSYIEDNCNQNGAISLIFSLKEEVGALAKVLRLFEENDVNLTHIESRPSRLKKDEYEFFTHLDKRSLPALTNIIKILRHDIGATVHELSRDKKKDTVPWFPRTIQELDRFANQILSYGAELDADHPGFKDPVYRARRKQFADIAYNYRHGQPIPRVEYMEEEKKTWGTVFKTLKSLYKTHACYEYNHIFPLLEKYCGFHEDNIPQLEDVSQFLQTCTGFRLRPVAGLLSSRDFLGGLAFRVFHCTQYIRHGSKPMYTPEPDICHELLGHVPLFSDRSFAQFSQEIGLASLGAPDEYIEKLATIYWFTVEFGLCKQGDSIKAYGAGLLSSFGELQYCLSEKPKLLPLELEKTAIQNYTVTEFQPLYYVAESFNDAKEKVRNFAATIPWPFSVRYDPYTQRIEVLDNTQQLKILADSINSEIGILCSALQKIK
Put plainly: Cell Based Phenylalanine Flux Assay.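 Further: after compound treatment, cells received sepiapterin plus isotope-labelled Phenylalanine for 4 hours, then labelled Tyrosine in the medium was quantified, 10-point 2-fold dilution series run in duplicate.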 The conditions noted are these: A375 cells expressing human PAH R408W; 24 hrs compound incubation; 13C-Tyrosine by LC-MS; average where tested multiple times; read-out: AC50.
What is called AC50 is the midpoint of the concentration-response curve, whichever way the signal moves. On to `Cn1ccc(-c2ncc(C(=O)N3CCc4[nH]cnc4[C@H]3c3cc4c(C(F)(F)F)cccn4n3)o2)n1` [Example 2109, (S)-(2-(1-methyl-1H-pyrazol-3-yl)oxazol-5-yl)(4-(4-(trifluoromethyl)pyrazolo[1,5-a]pyridin-2-yl)-1,4,6,7-tetrahydro-5H-imidazo[4,5-c]pyridin-5-yl)methanone], for which the AC50 was in the range of 500 to 1000 nM.
Take `Cc1c(-c2ncc(C(=O)N3CCc4[nH]cnc4[C@H]3c3cc4c(C(F)(F)F)cccn4n3)o2)cnn1C` [Example 2110, (S)-(2-(1,5-dimethyl-1H-pyrazol-4-yl)oxazol-5-yl)(4-(4-(trifluoromethyl)pyrazolo[1,5-a]pyridin-2-yl)-1,4,6,7-tetrahydro-5H-imidazo[4,5-c]pyridin-5-yl)methanone]: the AC50 was < 500 nM.
For `O=C(c1ocnc1C1CC1)N1CCc2[nH]cnc2[C@H]1c1cc2cccc(C(F)F)n2n1` [Example 2112, (S)-(4-cyclopropyloxazol-5-yl)(4-(7-(difluoromethyl)pyrazolo[1,5-a]pyridin-2-yl)-1,4,6,7-tetrahydro-5H-imidazo[4,5-c]pyridin-5-yl)methanone], the AC50 was in the range of 500 to 1000 nM.
As for `O=C(c1ocnc1C1CC1)N1CCc2[nH]cnc2[C@@H]1c1cc2cccc(C(F)F)n2n1` [Example 2113, (R)-(4-cyclopropyloxazol-5-yl)(4-(7-(difluoromethyl)pyrazolo[1,5-a]pyridin-2-yl)-1,4,6,7-tetrahydro-5H-imidazo[4,5-c]pyridin-5-yl)methanone], the AC50 is > 5000 nM.
As for `Cn1cc(-c2nc(C3CC3)c(C(=O)N3CCc4[nH]cnc4[C@@H]3c3cc4c(C(F)F)cccn4n3)o2)cn1` [Example 2115, (R)-(4-cyclopropyl-2-(1-methyl-1H-pyrazol-4-yl)oxazol-5-yl)(4-(4-(difluoromethyl)pyrazolo[1,5-a]pyridin-2-yl)-1,4,6,7-tetrahydro-5H-imidazo[4,5-c]pyridin-5-yl)methanone], the AC50 was in the range of 1000 to 5000 nM.
Consider `O=C(c1oc(-c2ccccn2)nc1C1CC1)N1CCc2[nH]cnc2[C@H]1c1cc2c(F)cccn2n1` [Example 2118, (S)-(4-cyclopropyl-2-(pyridin-2-yl)oxazol-5-yl)(4-(4-fluoropyrazolo[1,5-a]pyridin-2-yl)-1,4,6,7-tetrahydro-5H-imidazo(4,5-c]pyridin-5-yl)methanone], for which the AC50 was < 500 nM.
As to `O=C(c1oc(-c2ccccn2)nc1C1CC1)N1CCc2[nH]cnc2[C@@H]1c1cc2c(F)cccn2n1` [Example 2119, (R)-(4-cyclopropyl-2-(pyridin-2-yl)oxazol-5-yl)(4-(4-fluoropyrazolo[1,5-a]pyridin-2-yl)-1,4,6,7-tetrahydro-5H-imidazo[4,5-c]pyridin-5-yl)methanone], the AC50 was 1000 to 5000 nM.
For the compound `Cc1cccn2nc([C@@H]3c4nc[nH]c4CCN3C(=O)c3oc(-c4ccccn4)nc3C3CC3)cc12` [Example 2120, (S)-(4-cyclopropyl-2-(pyridin-2-yl)oxazol-5-yl)(4-(4-methylpyrazolo[1,5-a]pyridin-2-yl)-1,4,6,7-tetrahydro-5H-imidazo[4,5-c]pyridin-5-yl)methanone], the AC50 is < 500 nM.
Consider `O=C(c1oc(-c2ccccn2)nc1C1CC1)N1CCc2[nH]cnc2[C@H]1c1cc2c(C(F)F)cccn2n1` [Example 2122, (S)-(4-cyclopropyl-2-(pyridin-2-yl)oxazol-5-yl)(4-(4-(difluoromethyl)pyrazolo[1,5-a]pyridin-2-yl)-1,4,6,7-tetrahydro-5H-imidazo[4,5-c]pyridin-5-yl)methanone], for which the concentration at half-maximal activity (AC50) is < 500 nM.
For `O=C(c1oc(-c2ccccn2)nc1C1CC1)N1CCc2[nH]cnc2[C@@H]1c1cc2c(C(F)F)cccn2n1` [Example 2123, (R)-(4-cyclopropyl-2-(pyridin-2-yl)oxazol-5-yl)(4-(4-(difluoromethyl)pyrazolo[1,5-a]pyridin-2-yl)-1,4,6,7-tetrahydro-5H-imidazo[4,5-c]pyridin-5-yl)methanone], the AC50 was 1000 to 5000 nM.
